# Data as given in patent US9221809B2 (MERCK SHARP & DOHME CORP., priority 2011, dated 2015).
# pIC50: −log10 of the molar value. Where a name gives a salt, the structure may show the parent alone. Read-outs that look alike come from different tables or passages of the source.
# Target: IRAK4 (Homo sapiens (Human), UniProt Q9NWZ3)
# Assay: IRAK4 kinase activity, IMAP fluorescence polarization assay
# Assay type: biochemical
# Conditions: 100 μM ATP
# Summary of the method: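 GST-tagged IRAK4 at 0.5 nM phosphorylates 100 nM fluorescent peptide substrate with 100 μM ATP in pH 7.2 Tris buffer containing MgCl2, DTT and Tween 20, 30 min at 25 °C. Reaction stopped with IMAP binding reagent; phosphorylation read as increased fluorescence polarization.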
# [1] = 0.5 nM GST tagged IRAK4, read-out: IRAK4 IC50
# IRAK4, sequence (Q9NWZ3 whole entry): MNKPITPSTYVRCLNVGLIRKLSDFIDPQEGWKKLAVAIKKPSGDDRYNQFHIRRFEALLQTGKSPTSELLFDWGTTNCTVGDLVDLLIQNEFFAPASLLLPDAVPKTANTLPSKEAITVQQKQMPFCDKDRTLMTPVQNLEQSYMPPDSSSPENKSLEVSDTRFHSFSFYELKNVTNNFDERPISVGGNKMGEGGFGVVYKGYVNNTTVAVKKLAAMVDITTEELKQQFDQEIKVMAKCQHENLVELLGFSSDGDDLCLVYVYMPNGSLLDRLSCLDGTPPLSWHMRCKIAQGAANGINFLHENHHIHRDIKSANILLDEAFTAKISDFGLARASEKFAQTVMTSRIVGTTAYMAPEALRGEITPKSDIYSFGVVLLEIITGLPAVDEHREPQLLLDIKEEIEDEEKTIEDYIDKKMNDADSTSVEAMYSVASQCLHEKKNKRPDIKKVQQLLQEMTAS
pIC50 [1],pIC50 (read-out: IC50),Structure (SMILES),further results
–,–,"COc1ccc(OC)c(N2CCN(c3nc(N[C@@H]4CCCNC4)c(-c4nc5ccccc5s4)c(=O)[nH]3)CC2)c1 [Example 161, (R)-5-(benzo[d]thiazol-2-yl)-2-(4-(2,5-dimethoxyphenyl)piperazin-1-yl)-6-(piperidin-3-ylamino)pyrimidin-4(3H)-one]",pIC50 (read-out: IRAK4 IC50): 7.85
–,6.62,"NC1CCN(c2nc(N[C@@H]3CCCNC3)c(-c3nc4ccccc4s3)c(=O)[nH]2)CC1 [Example 322, 2-(4-aminopiperidin-1-yl)-5-(1,3-benzothiazol-2-yl)-6-[[(3R)-piperidin-3-yl]amino]-3,4-dihydropyrimidin-4-one; trifluoroacetic acid]",–
6.49,–,"O=c1[nH]c(NC2CC(F)(F)C2)nc(N[C@@H]2C[C@H](CO)[C@@H](O)[C@H]2O)c1-c1nc2ccccc2s1 [Example 9, 5-(Benzo[d]thiazol-2-yl)-2-(3,3-difluorocyclobutylamino)-6-((1R,2S,3R,4R)-2,3-dihydroxy-4-(hydroxymethyl)cyclopentylamino)pyrimidin-4(3H)-one.HCl]",–
7.34,–,"O=c1[nH]c(N2CCOCC2)nc(N[C@@H]2CCCNC2)c1-c1nc2ccc(F)cc2s1 [Example 112, (R)-5-(6-fluorobenzo[d]thiazol-2-yl)-2-morpholino-6-(piperidin-3-ylamino)pyrimidin-4(3H)-one.HCl]",–
–,–,CC(C)(C)c1cccc(-c2c(N[C@@H]3CCCNC3)nc(N3CCOCC3)[nH]c2=O)n1 [Example 197],pIC50 (read-out: IRAK4 IC50): 6.27
–,6.74,"CCOC(=O)C1CN(c2nc(N[C@@H]3CCCNC3)c(-c3nc4ccccc4s3)c(=O)[nH]2)CCO1 (stereo partly drawn) [Example 321, ethyl 4-[5-(1,3-benzothiazol-2-yl)-6-oxo-4-[[(3R)-piperidin-3-yl]amino]-1,6-dihydropyrimidin-2-yl]morpholine-2-carboxylate; trifluoroacetic acid]",–
–,7.85,"O=c1[nH]c(N2CCOCC2)nc(N[C@H]2CNCC[C@@H]2F)c1-c1nc2ccccc2s1 [Example 213, 5-(benzo[d]thiazol-2-yl)-6-(((3S,4S)-4-fluoropiperidin-3-yl)amino)-2-morpholinopyrimidin-4(3H)-one]",–
6.18,–,"O=c1[nH]c(NC2CNC2)nc(N[C@@H]2C[C@H](CO)[C@@H](O)[C@H]2O)c1-c1nc2ccccc2s1 [Example 36, 2-(Azetidin-3-ylamino)-5-(benzo[d]thiazol-2-yl)-6-(((1R,2S,3R,4R)-2,3-dihydroxy-4-(hydroxymethyl)cyclopentyl)amino)pyrimidin-4(3H)-one.HCl]",–
–,6.48,"O=c1[nH]c(N2CCC3CCCCC3C2)nc(N[C@@H]2CCCNC2)c1-c1nc2ccccc2s1 (stereo partly drawn) [Example 313, 5-(1,3-benzothiazol-2-yl)-(decahydroisoquinolin-2-yl)-6-[[(3R)piperidin-3-yl]amino]-3,4-dihydropyrimidin-4-one; trifluoroacetic acid]",–
7.14,–,"CC(C)[C@H]1C[C@@H](Nc2nc(N3CCOCC3)[nH]c(=O)c2-c2nc3ccccc3s2)[C@H](O)[C@@H]1O [Example 42, 5-(Benzo[d]thiazol-2-yl)-6-((1R,2S,3R,4R)-2,3-dihydroxy-4-isopropylcyclopentylamino)-2-morpholinopyrimidin-4(3H)-one.HCl]",–
–,–,"O=c1[nH]c(N2CCN(c3cnccn3)CC2)nc(N[C@@H]2CCCNC2)c1-c1nc2ccccc2s1 [Example 134, (R)-5-(benzo[d]thiazol-2-yl)-6-(piperidin-3-ylamino)-2-(4-(pyrazin-2-yl)piperazin-1-yl)pyrimidin-4(3H)-one]",pIC50 (read-out: IRAK4 IC50): 8.10

Structure (SMILES),pIC50 [1],pIC50 (read-out: IC50),further results
"O=c1[nH]c(OC2CCC2)nc(N[C@@H]2C[C@H](CO)[C@@H](O)[C@H]2O)c1-c1nc2ccccc2s1 [Example 15, 5-(Benzo[d]thiazol-2-yl)-2-cyclobutoxy-6-((1R,2S,3R,4R)-2,3-dihydroxy-4-(hydroxymethyl)cyclopentylamino)pyrimidin-4(3H)-one.HCl]",5.77,–,–
O=c1[nH]c(N2CCCC2)nc(N[C@@H]2CCCNC2)c1-c1nc2ccccc2s1 [Example 295],–,7.96,–
